From article PMC9385451 (International Journal for Parasitology: Drugs and Drug …, 2022)

Molecular target: T1, Eimeria tenella aldolase 2 (EtALD2), fructose-1,6-bisphosphate aldolase (Eimeria tenella, UniProt U6KYI1)
T1 sequence (U6KYI1 1-368): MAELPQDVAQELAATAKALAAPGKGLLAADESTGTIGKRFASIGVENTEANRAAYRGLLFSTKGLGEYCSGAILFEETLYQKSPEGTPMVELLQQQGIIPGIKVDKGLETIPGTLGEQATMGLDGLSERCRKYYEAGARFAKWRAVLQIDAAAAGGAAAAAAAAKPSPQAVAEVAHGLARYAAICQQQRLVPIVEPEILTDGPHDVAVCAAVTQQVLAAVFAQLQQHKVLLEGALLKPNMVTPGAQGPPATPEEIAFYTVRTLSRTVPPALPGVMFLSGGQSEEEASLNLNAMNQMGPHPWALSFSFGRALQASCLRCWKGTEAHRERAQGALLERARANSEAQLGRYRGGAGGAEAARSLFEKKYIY
Assay type: biochemical

IC50: 10.4 µM
Compound: O=c1c(O)c(-c2ccc(O)cc2O)oc2cc(O)cc(O)c12 [morin]
